54 compounds from PubChem BioAssay AID540252 (Sanford-Burnham Center for Chemical Genomics, 2011) can be followed below.

Active and inactive are the calls of the source. How the calls were made is not given here.

This test concerns the target glucose-6-phosphate dehydrogenase-6-phosphogluconolactonase (Plasmodium falciparum 3D7). The experiment in a line: inhibition of P. falciparum G6PD activity – biochemical, end-point NADPH detection, orthogonal assay, dose response (AID 540252). Conditions: purified PfG6PD enzyme, NADPH direct detection.
With `O=c1c2ccccc2sn1-c1ccc(S(=O)(=O)N2CCCC2)cc1`, the IC50 is 36.6 µM.
Regarding `O=C(Nc1ccccn1)c1sc2cc([N+](=O)[O-])ccc2c1Cl`, the IC50 is > 80 µM (inactive).
Take `COC(=O)[C@H](C)NC(=O)c1cc2c(cn1)[nH]c1ccccc12`: the IC50 is > 80 µM (inactive).
In the case of `C[C@H](NC(N)=O)C(=O)Nc1ccc(N2CCOCC2)c(S(=O)(=O)Nc2ccc(Cl)cc2)c1` it was > 80 µM (inactive).
For `C#CCCc1cscc1/C=[N+](\[O-])c1ccc(C(=O)OCC)cc1`, the IC50 is > 80 µM (inactive).
For the compound `CCOc1ccccc1C=NNC(=O)CCCCC(=O)NN=Cc1ccccc1OCC`, the IC50 was > 80 µM (inactive).
Regarding `CCN1CCN(C(=S)c2ccc(Cl)c(Cl)c2)CC1`, the IC50 was > 80 µM (inactive).
Consider `CC(C)(C)c1ccc(O)c(O)c1`, for which the IC50 was 54.8 µM.
Consider `CCOc1cc(NCc2ccccc2)c2ncn(C(C)C)c2c1`, for which the IC50 is > 80 µM (inactive).
In the case of `Cc1cccc(C2(c3cccc(C)c3)CC2C(=O)Nc2ccc([N+](=O)[O-])cc2O)c1` (centres undefined) it was > 80 µM (inactive); in that of `O=[N+]([O-])c1ccc2c(c1)-c1ccccc1C2O` (centres undefined), 23.8 µM; in that of `COc1cccc(C=Nc2cc(C(C)C)c(O)cc2C)c1O`, > 80 µM (inactive).
In the case of `NCCNc1ccc(C(=O)N2c3ccccc3Sc3ccccc32)cc1[N+](=O)[O-]`, the IC50 is 13.2 µM.
Consider `CS(=O)(=O)c1ccc(N)c(SSc2cc(S(C)(=O)=O)ccc2N)c1`, for which the IC50 is 17.6 µM.
As to `CC1COCC(C)N1C1=C(Cl)C(=O)c2ccccc2C1=O` (centres undefined), the IC50 was > 80 µM (inactive).
Regarding `COc1ccc(C(=O)Nc2cc(Cl)ccc2C(=O)O)cc1`, the IC50 is > 80 µM (inactive).
For `O=C1OC(c2ccc3ccccc3c2O)(c2ccc3ccccc3c2O)c2ccccc21`, the IC50 was > 80 µM (inactive).
In the case of `O=S(=O)(Nc1ccccc1F)c1cccc(NC(=S)NCCN2CCOCC2)c1` it was 71.2 µM.
As for `O=C(CNC(=O)c1ccco1)OCC(=O)c1ccc([N+](=O)[O-])cc1`, the IC50 was 48.4 µM.
In the case of `O=C(COC(=O)c1ccc2c(c1[N+](=O)[O-])C(=O)c1ccccc1C2=O)NC1CC1`, the IC50 is > 80 µM (inactive).
With `CCN(CC)C(=S)SSC(=S)N(CC)CC`, the IC50 is > 80 µM (inactive).
As for `O=c1c2ccccc2sn1-c1ccc(S(=O)(=O)N2CCCCC2)cc1`, the IC50 is > 80 µM (inactive).
For the compound `Cc1cccc(OCC(=O)NCC(=O)N/N=C/c2ccccc2)c1`, the IC50 is > 80 µM (inactive).
Consider `Cc1ccccc1-n1sc2cc(F)ccc2c1=O`, for which the IC50 was 8.11 µM.
As for `Cc1nc2ccccn2c1-c1ccnn1S(=O)(=O)c1ccc(F)cc1`, the IC50 is > 80 µM (inactive).
Regarding `C=CCOc1c(Cl)cc(CNc2ccc3[nH]c(=O)[nH]c3c2)cc1OC`, the IC50 is > 80 µM (inactive).
In the case of `COc1cccc2nc3cc(C)c(C)cc3nc12` it was > 80 µM (inactive); in that of `COc1cccc(CNc2ccc3[nH]c(=O)[nH]c3c2)c1OCc1ccccc1Cl`, > 80 µM (inactive).
In the case of `COc1ccc(C(=O)Nc2sc3c(c2C(=O)O)CC(C)(C)OC3)cc1` it was > 80 µM (inactive); in that of `COc1cc(CNc2ccc(N3CCCC3)cc2)ccc1OCc1ccccc1F`, > 80 µM (inactive); in that of `O=c1c2ccc(F)cc2sn1-c1ccccc1`, 14.5 µM.
Take `Nc1c(C(=O)Nc2ccc(F)cc2)sc(=S)n1-c1ccccc1F`: the IC50 is > 80 µM (inactive).
For the compound `OCc1ccccc1SSc1ccccc1CO`, the half-maximal inhibitory concentration (IC50) is 56.2 µM.
Next, `COc1ccc(C(=O)/C=C2\Sc3ccccc3N2C)cc1`: > 80 µM (inactive).
In the case of `O=C1Nc2cc(C(=O)NCCCN3CCCC3)ccc2S/C1=C\c1ccccc1`, the IC50 is > 80 µM (inactive).
For the compound `Cc1ccc(NC(=O)c2cc(N3C(=O)C=CC3=O)ccc2Cl)cc1C`, the IC50 is 49.2 µM.
Regarding `Cc1ccc(/C=C2\C(=O)NC(=S)N(c3ccccc3F)C2=O)s1`, the IC50 was > 80 µM (inactive).
Next, `COc1cc(N=Cc2c(CO)cnc(C)c2O)cc(OC)c1OC`: > 80 µM (inactive); `CCC(C)(C)c1nnc(NC(=O)C2CCN(C(=O)c3ccco3)CC2)s1`: > 80 µM (inactive).
Next, `O=[N+]([O-])c1cccc(SSc2cccc([N+](=O)[O-])c2)c1`: 45.3 µM; `Cc1cc(C)nc(SSc2nc(C)cc(C)n2)n1`: 57.6 µM; `COc1cc(NCc2ccccc2O)c2ncccc2c1`: > 80 µM (inactive).
Regarding `O=C(CN1CCN(c2ccc(O)cc2)CC1)Nc1cc(S(=O)(=O)N2CCOCC2)ccc1Cl`, the IC50 was > 80 µM (inactive).
For `O=C(Nc1ccc(N2CCCC2)cc1)c1cccc(-c2cc3ccccc3oc2=O)c1`, the IC50 was > 80 µM (inactive).
With `CSc1nnc(NC(=O)c2ccc3c(c2)OCO3)s1`, the IC50 is > 80 µM (inactive).
Next, `O=C(O)c1ccccc1NS(=O)(=O)c1cccc(-n2sc3ccccc3c2=O)c1`: > 80 µM (inactive).
Next, `COc1c2ccoc2c(OCC=C(C)C)c2oc(=O)ccc12`: > 80 µM (inactive).
Take `O=S(c1ccccc1O)S(=O)c1ccccc1O` (centres undefined): the IC50 is > 80 µM (inactive).
Regarding `COc1cccc(-c2c(C(=O)N/N=C/c3ccc(C)s3)nnn2-c2nonc2N)c1`, the IC50 was > 80 µM (inactive).
`O=C1CCN(c2ccccc2)N1`: the IC50 was > 80 µM (inactive).
Next, `O=C1C=C(NCCc2cc(Br)c(O)c(Br)c2)C(=O)c2ncccc21`: > 80 µM (inactive); `O=C(Nc1ccc(N2CCN(C(=O)c3ccco3)CC2)c(Cl)c1)c1cc2ccccc2o1`: > 80 µM (inactive); `COC(=O)CCC(=O)OC1(C)C(=O)C2=CN(c3ccc(OC)cc3)C(c3ccc(OC)cc3)=CC2=C(Br)C1=O` (centres undefined): > 80 µM (inactive).
In the case of `COc1cc(CN2CCCC(C(=O)c3ccc4c5c(cccc35)CC4)C2)cc(OC)c1O` (centres undefined), the IC50 is > 80 µM (inactive).

One may read the IC50 as the concentration at which inhibition is half-maximal.
